Like-named read-outs stand apart in the source and are kept apart here.
How the values were obtained:
5-HT2AR [1] = biological target: T1, 5-HT2AR (Homo sapiens, UniProt P28223); assay: Calcium flux assay (FLIPR, Fluo-4), 5-HT2AR stable cell line; format: cell-based; conditions: for 5-HT2AR Rmax ± S.E.M: value in parentheses
T1 construct: expressed in transfected cells; host or cells: Flp-In 293 T-Rex (tetracycline inducible)
Experimental: (§1) Stable cell lines for 5-HT2AR, 5-HT2BR and 5-HT2CR generated using the Flp-In 293 T-Rex Tetracycline inducible system (Invitrogen). Tetracycline-induced cells were seeded in 384-well poly-L-lysine plates at a density of 10,000 cells/well in DMEM containing 1% dialyzed FBS at least 16-24 hr before the calcium flux assay. On the day of the assay, the cells were incubated (20 ul/well) for 1 hr at 37° C. with Fluo-4 Direct dye (Invitrogen) reconstituted in FLIPR buffer (1×HBSS, 2.5 mM probenecid, and 20 mM HEPES, pH 7.4). After dye loading, cells were placed in a FLIPR^TETRA fluorescence imaging plate reader (Molecular Dynamics). Drug dilutions were prepared at 3× final concentration in drug buffer (1×HBSS, 20 mM HEPES, 0.1% BSA, 0.01% ascorbic acid, pH 7.4) and aliquoted into 384-well plates and placed in the FLIPR^TETRA for drug stimulation. The fluidics module and plate reader of the FLIPR^TETRA were programmed to read baseline fluorescence for 10s (1 read/s), then 10 ul of drug/well was added and read for 5 min (1 read/s). Fluorescence in each well was normalized to the average of the first 10 reads (i.e., baseline fluorescence). Then, the maximum-fold increase, which occurred within the first 60 s after drug addition, was determined and fold over baseline was plotted as a function of drug concentration. Data were normalized to % 5-HT stimulation and analyzed using “log(agonist) vs. response” in GraphPad Prism 9.0.

5-HT2CR [2] = biological target: T2, 5-HT2CR (Homo sapiens, UniProt P28335); assay: 5-HT2CR binding affinity (Ki), Table 8
T2 sequence (P28335 33-458): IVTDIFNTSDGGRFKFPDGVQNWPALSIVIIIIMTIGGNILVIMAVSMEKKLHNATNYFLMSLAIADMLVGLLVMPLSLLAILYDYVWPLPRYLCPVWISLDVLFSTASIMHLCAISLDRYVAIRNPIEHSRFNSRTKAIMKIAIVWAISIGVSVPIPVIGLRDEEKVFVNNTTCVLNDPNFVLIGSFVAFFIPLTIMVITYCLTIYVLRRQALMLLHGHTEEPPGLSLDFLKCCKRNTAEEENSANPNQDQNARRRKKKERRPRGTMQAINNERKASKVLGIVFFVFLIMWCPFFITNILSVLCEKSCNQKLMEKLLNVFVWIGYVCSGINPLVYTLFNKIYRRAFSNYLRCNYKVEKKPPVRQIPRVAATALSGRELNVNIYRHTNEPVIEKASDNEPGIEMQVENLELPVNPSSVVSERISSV

5-HT2BR [3] = biological target: T3, 5-HT2BR (Homo sapiens, UniProt P41595); assay: 5-HT2BR binding affinity (Ki), Table 8
T3 construct: expressed in transfected cells; host or cells: Flp-In 293 T-Rex (tetracycline inducible)

5-HT2BR [4] = biological target: T3, 5-HT2BR; assay: Calcium flux assay (FLIPR, Fluo-4), 5-HT2BR stable cell line; format: cell-based; conditions: for 5-HT2BR Rmax ± S.E.M: value in parentheses
Experimental: Stable cell lines for 5-HT2AR, 5-HT2BR and 5-HT2CR generated using the Flp-In 293 T-Rex Tetracycline inducible system (Invitrogen). Tetracycline-induced cells were seeded in 384-well poly-L-lysine plates at a density of 10,000 cells/well in DMEM containing 1% dialyzed FBS at least 16-24 hr before the calcium flux assay. On the day of the assay, the cells were incubated (20 ul/well) for 1 hr at 37° C. with Fluo-4 Direct dye (Invitrogen) reconstituted in FLIPR buffer (1×HBSS, 2.5 mM probenecid, and 20 mM HEPES, pH 7.4). After dye loading, cells were placed in a FLIPR^TETRA fluorescence imaging plate reader ([…]). Drug dilutions were prepared at 3× final concentration in drug buffer (1×HBSS, 20 mM HEPES, 0.1% BSA, 0.01% ascorbic acid, pH 7.4) and aliquoted into 384-well plates and placed in the FLIPR^TETRA for drug stimulation. The fluidics module and plate reader of the FLIPR^TETRA were programmed to read baseline fluorescence for 10s (1 read/s), then 10 ul of drug/well was added and read for 5 min (1 read/s). Fluorescence in each well was normalized to the average of the first 10 reads (i.e., baseline fluorescence). Then, the maximum-fold increase, which occurred within the first 60 s after drug addition, was determined and fold over baseline was plotted as a function of drug concentration. Data were normalized to % 5-HT stimulation and analyzed using “log(agonist) vs. response” in GraphPad Prism 9.0.

5-HT2AR [5] = biological target: T1, 5-HT2AR; assay: 5-HT2AR binding affinity (Ki), Table 8
5-HT2CR [6] = biological target: T2, 5-HT2CR; assay: Calcium flux assay (FLIPR, Fluo-4), 5-HT2CR stable cell line; format: cell-based; conditions: for EC50: read-out: 5-HT2CR EC50; for 5-HT2CR Rmax ± S.E.M: value in parentheses
Experimental: as §1

[7] = bracketed value below EC50, read-out: 5-HT2AR pEC50 ± S.E.M (converted)
[8] = bracketed value below Ki, read-out: 5-HT2BR pKi ± S.E.M (converted)
[9] = bracketed value below EC50, read-out: 5-HT2BR pEC50 ± S.E.M (converted)
[10] = bracketed value below Ki, read-out: 5-HT2CR pKi ± S.E.M (converted)

T3 sequence (P41595 whole entry): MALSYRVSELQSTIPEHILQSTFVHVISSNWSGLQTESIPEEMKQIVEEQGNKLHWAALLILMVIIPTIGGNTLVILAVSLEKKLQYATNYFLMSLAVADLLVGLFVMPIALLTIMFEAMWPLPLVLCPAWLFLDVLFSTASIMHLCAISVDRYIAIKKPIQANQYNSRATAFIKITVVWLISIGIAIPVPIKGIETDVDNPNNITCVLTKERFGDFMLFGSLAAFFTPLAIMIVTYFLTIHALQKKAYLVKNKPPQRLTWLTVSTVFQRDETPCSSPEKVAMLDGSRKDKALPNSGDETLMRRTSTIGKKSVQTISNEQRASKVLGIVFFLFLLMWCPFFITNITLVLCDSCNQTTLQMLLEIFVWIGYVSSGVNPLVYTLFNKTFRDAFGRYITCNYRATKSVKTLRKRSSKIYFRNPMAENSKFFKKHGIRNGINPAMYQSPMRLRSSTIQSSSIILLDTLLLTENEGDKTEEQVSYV
T1 sequence (P28223 whole entry): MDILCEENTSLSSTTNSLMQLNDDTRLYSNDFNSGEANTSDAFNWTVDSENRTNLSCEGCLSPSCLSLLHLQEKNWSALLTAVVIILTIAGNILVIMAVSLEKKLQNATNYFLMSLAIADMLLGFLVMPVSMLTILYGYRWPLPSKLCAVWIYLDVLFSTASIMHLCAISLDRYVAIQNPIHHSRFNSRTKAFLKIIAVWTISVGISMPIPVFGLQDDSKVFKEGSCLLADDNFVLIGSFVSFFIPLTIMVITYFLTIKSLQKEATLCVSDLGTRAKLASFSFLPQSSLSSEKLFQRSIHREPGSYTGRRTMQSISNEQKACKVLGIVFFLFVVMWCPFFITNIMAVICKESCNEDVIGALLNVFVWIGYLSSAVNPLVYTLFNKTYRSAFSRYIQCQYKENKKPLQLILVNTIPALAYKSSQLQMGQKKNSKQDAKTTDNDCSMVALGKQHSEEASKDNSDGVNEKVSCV

| Structure (SMILES) | EC50 (5-HT2AR [1]; read-out: 5-HT2AR EC50) | 5-HT2AR Rmax ± S.E.M (5-HT2AR [1]) | Ki (5-HT2CR [2]; read-out: 5-HT2CR Ki) | Ki (5-HT2BR [3]; read-out: 5-HT2BR Ki) | EC50 (5-HT2BR [4]; read-out: 5-HT2BR EC50) | 5-HT2BR Rmax ± S.E.M (5-HT2BR [4]) | Ki (5-HT2AR [5]; read-out: 5-HT2AR Ki) | EC50 (5-HT2CR [6]) | 5-HT2BR EC50 (5-HT2BR [4]) | 5-HT2CR EC50 (5-HT2CR [6]) | EC50 (5-HT2AR [1]; [7]) | Ki (5-HT2BR [3]; [8]) | EC50 (5-HT2BR [4]; [9]) | Ki (5-HT2CR [2]; [10]) | 5-HT2CR Rmax ± S.E.M (5-HT2CR [6]) | 5-HT2AR EC50 (5-HT2AR [1]) | Ki (5-HT2AR [5]; bracketed value below Ki, read-out: 5-HT2AR pKi ± S.E.M (converted)) |
| --- | --- | --- | --- | --- | --- | --- | --- | --- | --- | --- | --- | --- | --- | --- | --- | --- | --- |
| c1cnc2[nH]cc(C3CCCNC3)c2c1 (single isomer, unassigned) [compound 50, 3-(piperidin-3-yl)-1H-pyrrolo[2,3-b]pyridine] | 1.17 µM | (65.1% | 2.73 µM | 0.62 µM | 0.68 µM | (47.0% | 5.25 µM | > 10 µM |  |  |  |  |  |  |  |  |  |
| c1cnc2[nH]cc(C3CCCNC3)c2c1 (single isomer, unassigned) [compound 51, 3-(piperidin-3-yl)-1H-pyrrolo[2,3-b]pyridine] | 4.21 µM | (18.2% | 0.48 µM | 0.5 µM |  |  | 2.73 µM |  | antagonist | antagonist |  |  |  |  |  |  |  |
| CCCCCN1CC(c2cncc(Cl)c2)=C[C@H](C)C1 [Compound 10, 5′-chloro-5-methyl-1-pentyl-1,2,5,6-tetrahydro-3,3′-bipyridine] |  | (68.6% | 1.66 µM |  |  | (88.9% | 7.01 µM | > 10 µM |  |  | 0.331 µM | 0.00501 µM | 0.0245 µM |  |  |  |  |
| CCCN1CC(c2cncc(Cl)c2)=C[C@H](C)C1 [Compound 16, 5′-Chloro-5-methyl-1-propyl-1,2,5,6-tetrahydro-3,3′-bipyridine] | 1.06 µM | (48.7% | 6.52 µM |  |  | (74.9% | 7.32 µM | 6.76 µM |  |  | 1.05 µM | 0.0132 µM | 0.02 µM | 6.31 µM | (34.4% |  |  |
| CCCCN1CC(c2c[nH]c3ncccc23)=C[C@H](C)C1 [Compound 22, 3-(1-butyl-5-methyl-1,2,5,6-tetrahydropyridin-3-yl)-1H-pyrrolo[2,3-b]pyridine] | 2.26 µM | (23.8% | 7.03 µM | 1.97 µM |  |  | 5.27 µM |  | antagonist | antagonist |  |  |  | 7.41 µM |  |  |  |
| C[C@@H]1C=C(c2c[nH]c3ncccc23)CN(CC2(C)COC2)C1 [compound 25, (R)-3-(5-methyl-1-((3-methyloxetan-3-yl)methyl)-1,2,5,6-tetrahydropyridin-3-yl)-1H-pyrrolo[2,3-b]pyridine] | 4 µM | (29.5% | > 10 µM | 3.29 µM | 6.38 µM | (44.6% | > 10 µM |  |  |  |  |  |  |  |  |  |  |
| C[C@H]1C=C(c2c[nH]c3ncccc23)CN(CC2(C)COC2)C1 [compound 26, (S)-3-(5-methyl-1-((3-methyloxetan-3-yl)methyl)-1,2,5,6-tetrahydropyridin-3-yl)-1H-pyrrolo[2,3-b]pyridine] | > 10 µM |  | > 10 µM | 5.83 µM | 9.23 µM | (71.0% | > 10 µM |  |  |  |  | 5.75 µM | 9.12 µM |  |  |  |  |
| C[C@@H]1C=C(c2c[nH]c3ncccc23)CN(C2COC2)C1 [compound 27, (R)-3-(5-methyl-1-(oxetan-3-yl)-1,2,5,6-tetrahydropyridin-3-yl)-1H-pyrrolo[2,3-b]pyridine] | > 10 µM |  | > 10 µM | > 10 µM |  |  | > 10 µM |  | antagonist |  |  |  |  |  |  |  |  |
| C[C@H]1C=C(c2c[nH]c3ncccc23)CN(C2COC2)C1 [compound 28, (S)-3-(5-methyl-1-(oxetan-3-yl)-1,2,5,6-tetrahydropyridin-3-yl)-1H-pyrrolo[2,3-b]pyridine] | > 10 µM |  | > 10 µM | 9.89 µM | 5.24 µM | (48.1% | > 10 µM |  |  |  |  | 9.77 µM |  |  |  |  |  |
| C[C@@H]1C=C(c2c[nH]c3ncccc23)CN(C2CC2)C1 [compound 29, (R)-3-(1-cyclopropyl-5-methyl-1,2,5,6-tetrahydropyridin-3-yl)-1H-pyrrolo[2,3-b]pyridine] | 1.36 µM | (63.0% | > 10 µM | 1.66 µM | 5.15 µM | (74.7% | 6.14 µM |  |  |  |  |  |  |  |  |  |  |
| C[C@H]1C=C(c2c[nH]c3ncccc23)CN(C2CC2)C1 [compound 30, (S)-3-(1-cyclopropyl-5-methyl-1,2,5,6-tetrahydropyridin-3-yl)-1H-pyrrolo[2,3-b]pyridine] | 3.54 µM | (29.1% | > 10 µM | 2.54 µM | 4.36 µM | (58.3% | > 10 µM |  |  |  |  |  |  |  |  |  |  |
| C[C@@H]1C=C(c2c[nH]c3ncccc23)CN(CCCN(C)C)C1 [compound 31, (R)-N,N-dimethyl-3-(3-methyl-5-(1H-pyrrolo[2,3-b]pyridin-3-yl)-3,6-dihydropyrridin-1(2H)-yl)propan-1-amine] |  |  | > 10 µM | > 10 µM |  |  | > 10 µM |  | antagonist |  |  |  |  |  |  | antagonist |  |
| C[C@H]1C=C(c2c[nH]c3ncccc23)CN(CCCN(C)C)C1 [compound 32, (S)-N,N-dimethyl-3-(3-methyl-5-(1H-pyrrolo[2,3-b]pyridin-3-yl)-3,6-dihydropyridin-1(2H)-yl)propan-1-amine] |  |  | > 10 µM | 9.72 µM |  |  | > 10 µM |  | antagonist |  |  |  |  |  |  | antagonist |  |
| C[C@H]1C=C(c2c[nH]c3ncccc23)CN(C)C1 [compound 34, (S)-3-(1,5-dimethyl-1,2,5,6-tetrahydropyridin-3-yl)-1H-pyrrolo[2,3-b]pyridine] | 1.14 µM | (7.1% | 0.75 µM | 0.64 µM |  |  | 1.52 µM |  | antagonist | antagonist |  |  |  | 0.741 µM |  |  |  |
| C[C@@H]1C=C(c2c[nH]c3ncccc23)CNC1 [compound 38, (R)-3-(5-methyl-1,2,5,6-tetrahydropyridin-3-yl)-1H-pyrrolo[2,3-b]pyridine] |  | (90.1% |  |  |  | (82.9% | 0.68 µM |  |  |  |  | 0.295 µM |  |  | (75.0% |  |  |
| C[C@@H]1C=C(c2c[nH]c3ncccc23)CN(CCCc2cnn(C)c2)C1 [compound 43, (R)-3-(5-methyl-1-(3-(1-methyl-1H-pyrazol-4-yl)propyl)-1,2,5,6-tetrahydropyridin-3-yl)-1H-pyrrolo[2,3-b]pyridine] |  |  | > 10 µM | 0.7 µM | 0.79 µM | (39.5% | 0.67 µM |  |  |  |  | 0.692 µM |  |  |  | antagonist | 0.661 µM |
| C[C@H]1C=C(c2c[nH]c3ncccc23)CN(CCCc2cnn(C)c2)C1 [compound 44, (S)-3-(5-methyl-1-(3-(1-methyl-1H-pyrazol-4-yl)propyl)-1,2,5,6-tetrahydropyridin-3-yl)-1H-pyrrolo[2,3-b]pyridine] |  | (40.2% | > 10 µM | 0.96 µM | 0.36 µM | (56.2% | 2.37 µM |  |  |  | 0.269 µM |  | 0.355 µM |  |  |  |  |
| C[C@H]1C=C(c2c[nH]c3ncccc23)CN(Cc2cnco2)C1 [compound 48, (S)-5-((3-methyl-5-(1H-pyrrolo[2,3-b]pyridin-3-yl)-3,6-dihydropyridin-1(2H)-yl)methyl)oxazole] |  |  | > 10 µM | 8.01 µM | 8.86 µM | (48.8% | > 10 µM |  |  |  |  |  |  |  |  | antagonist |  |

Source: patent US20230365542A1, “Selective Agonists of 5-HT2A Receptor and Methods of Use” (Yale University, priority 2020, published 2023)
